How the values were obtained:
Panc-1 = assay: Cytotoxicity on pancreatic cancer cell lines, assay similar to Example 1 (Example 4); details: Homo sapiens
Description: (§6) Day 1-Cell Seeding. Monolayer cultures of each cell line were harvested for compound screening as detailed below. Culture medium was aspirated, and the cells were washed once with PBS. Accutase was added and flasks were incubated at 37° C. until cells became detached. An equal volume of complete medium was added to quench the Accutase, and the cells were then pipetted up and down several times to generate a homogenous single cell suspension. The density and viability of cells was determined by Trypan Blue using a TC20 Automated Cell Counter. Experimental cells were resuspended to a concentration of 0.17×10^6/mL in EMEM/10% FBS/Anti-Anti media (complete EMEM) and seeded in the inner wells of 384-well luminescence plates at 15 μL/well (2,500/well final). Each cell line was plated in duplicate on separate plates. […]
(§7) Day 4—Viability Measurements. […] Any visible bubbles were removed with 100% ethanol vapor, then luminescence (RLU) was read on the Spectra Max M5e plate reader, using the 384-well opaque plate setting and SoftMaxPro v5.4 software with an integration time of 50 milliseconds. To determine the effect of test articles on cell viability, raw RLU values were exported to Excel and percent survival was calculated as a percentage of vehicle control (0.2% DMSO in EMEM), where the vehicle control is set at 100%.

NCI-H2452 = assay: Cytotoxicity on lung cancer cell lines, assay similar to Example 1 (Example 4); details: Homo sapiens
Description: as §6
(§8) Day 4—Viability Measurements. […] Any visible bubbles were removed with 100% ethanol vapor, then luminescence (RLU) was read on the Spectra Max M5e plate reader, using the 384-well opaque plate setting and SoftMaxPro v5.4 software with an integration time of 50 milliseconds. To determine the effect of test articles on cell viability, raw RLU values were exported to Excel and percent survival was calculated as a percentage of vehicle control (0.2% DMSO in EMEM), where the vehicle control is set at 100%. […]

MIA-PaCa-2 = assay: Cytotoxicity on pancreatic cancer cell lines, assay similar to Example 1 (Example 4); details: Homo sapiens
Description: as §6, §8

OSC-19 = assay: CellTiter-Glo cell viability, T48 (Example 3); format: cell-based
Description: (§1) Day 2—Compound Treatment.
(§2) Day 4—Viability Measurements.

Detroit 562 = assay: CellTiter-Glo cell viability, T48 (Example 3); format: cell-based
Description: as §1, §2

CAL-27 = assay: CellTiter-Glo cell viability, T48 (Example 3); format: cell-based
Description: as §1, §2

A253 = assay: CellTiter-Glo cell viability, T48 (Example 3); format: cell-based
Description: as §1, §2

SCC-4 = assay: CellTiter-Glo cell viability, T48 (Example 3); format: cell-based
Description: as §1, §2

KYSE-270 = assay: CellTiter-Glo cell viability, T48 (Example 3); format: cell-based
Description: as §1, §2

SCC-15 = assay: CellTiter-Glo cell viability, T48 (Example 3); format: cell-based
Description: as §1, §2

FADU = assay: CellTiter-Glo cell viability, T48 (Example 3); format: cell-based
Description: as §1, §2

KYSE-410 = assay: CellTiter-Glo cell viability, T48 (Example 3); format: cell-based
Description: as §1, §2

RPMI-2650 = assay: CellTiter-Glo cell viability, T48 (Example 3); format: cell-based
Description: as §1, §2

SW579 = assay: CellTiter-Glo cell viability, T48 (Example 3); format: cell-based
Description: as §1, §2

T.Tn = assay: CellTiter-Glo cell viability, T48 (Example 3); format: cell-based
Description: as §1, §2

SCC-25 = assay: CellTiter-Glo cell viability, T48 (Example 3); format: cell-based
Description: as §1, §2

COLO-680N = assay: CellTiter-Glo cell viability, T48 (Example 3); format: cell-based
Description: as §1, §2

KYSE-70 = assay: CellTiter-Glo cell viability, T48 (Example 3); format: cell-based
Description: as §1, §2

KYSE-150 = assay: CellTiter-Glo cell viability, T48 (Example 3); format: cell-based
Description: as §1, §2

TE-1 = assay: CellTiter-Glo cell viability, T48 (Example 3); format: cell-based
Description: as §1, §2

SCC-9 = assay: CellTiter-Glo cell viability, T48 (Example 3); format: cell-based
Description: as §1, §2

SNU-5 = assay: Cytotoxicity on gastric cancer cell lines, assay similar to Example 1 (Example 4); details: Homo sapiens
Description: as §6, §7

LS411N = assay: CellTiter-Glo cell viability, 48 h (Example 1); format: cell-based; details: Homo sapiens, LS-411N
Description: (§3) Test Article Preparation for INBRX-109.
(§4) Day 2—Test and Control Article Addition.
(§5) Day 4—Viability Measurements. […] Data was graphed in GraphPad Prism 7.

SNU-C2B = assay: CellTiter-Glo cell viability, 48 h (Example 1); format: cell-based; details: Homo sapiens
Description: as §3, §4, §5

NCI-N87 = assay: Cytotoxicity on gastric cancer cell lines, assay similar to Example 1 (Example 4); details: Homo sapiens
Description: as §6, §7

HCC2935 = assay: Cytotoxicity on lung cancer cell lines, assay similar to Example 1 (Example 4); details: Homo sapiens
Description: as §6, §8

SW620 = assay: CellTiter-Glo cell viability, 48 h (Examples 1, 2); format: cell-based; details: Homo sapiens, SW-620
Description: as §3, §4, §5

NCI-H460 = assay: Cytotoxicity on lung cancer cell lines, assay similar to Example 1 (Example 4); details: Homo sapiens
Description: as §6, §8

AsPC-1 = assay: Cytotoxicity on pancreatic cancer cell lines, assay similar to Example 1 (Example 4); details: Homo sapiens, ASPC1
Description: as §6, §7

SW1990 = assay: as above; details: Homo sapiens
Description: as §6, §8

NCI-H23 = assay: Cytotoxicity on lung cancer cell lines, assay similar to Example 1 (Example 4); details: Homo sapiens
Description: as §6, §8

SNU-1 = assay: Cytotoxicity on gastric cancer cell lines, assay similar to Example 1 (Example 4); details: Homo sapiens, SNU1
Description: as §6, §7

A549 = assay: Cytotoxicity on lung cancer cell lines, assay similar to Example 1 (Example 4); details: Homo sapiens
Description: as §6, §8

HT-29 = assay: CellTiter-Glo cell viability, 48 h (Example 1); format: cell-based; details: Homo sapiens
Description: as §3, §4, §5

LOVO = assay: CellTiter-Glo cell viability, 48 h (Example 1); format: cell-based; details: Homo sapiens
Description: as §3, §4, §5

LS174T = assay: CellTiter-Glo cell viability, 48 h (Examples 1, 2); format: cell-based; details: Homo sapiens, LCL-161 5 uM alone
Description: as §3, §4, §5

[1] = Homo sapiens, Debio-1143 4.5 μM alone
[2] = LCL-161 5 uM alone, read-out: % cytotoxicity

`CN[C@@H](C)C(=O)N[C@H]1CN(C(=O)CC(C)C)CC[C@H]2CC[C@@H](C(=O)NC(c3ccccc3)c3ccccc3)N2C1=O` [Debio-1143, xevinapant] was tested, and the cytotoxicity at 2 µM (Panc-1) was 13.6%, the cytotoxicity at 2 µM (NCI-H2452) was 2.82% and the cytotoxicity at 2 µM (MIA-PaCa-2) was 7.37%. It also gave a cytotoxicity at 4.5 µM (OSC-19; OSC19, Debio-1143 4.5 μM alone) of -7.1%, a cytotoxicity at 4.5 µM (Detroit 562; [1]) of 9% and a cytotoxicity at 4.5 µM (CAL-27; [1]) of 7.2%. It also gave a cytotoxicity at 4.5 µM (A253; [1]) of 3.2%, a cytotoxicity at 4.5 µM (SCC-4; [1]) of 0.7% and a cytotoxicity at 4.5 µM (KYSE-270; [1]) of 8.2%. It also gave a cytotoxicity at 4.5 µM (SCC-15; [1]) of 0.9%, a cytotoxicity at 4.5 µM (FADU; [1]) of -3.7% and a cytotoxicity at 4.5 µM (KYSE-410; [1]) of -3.3%. For the same molecule, the cytotoxicity at 4.5 µM (RPMI-2650; [1]) was 5.6%, the cytotoxicity at 4.5 µM (SW579; Debio-1143 4.5 μM alone) was 7.7% and the cytotoxicity at 4.5 µM (T.Tn; Debio-1143 4.5 μM alone) was 4.4%. It also gave a cytotoxicity at 4.5 µM (SCC-25; [1]) of 0.6%, a cytotoxicity at 4.5 µM (COLO-680N; [1]) of 3.4% and a cytotoxicity at 4.5 µM (KYSE-70; [1]) of -6.7%. The cytotoxicity at 4.5 µM (KYSE-150; [1]) was -13.7%, the cytotoxicity at 4.5 µM (TE-1; [1]) was -6% and the cytotoxicity at 4.5 µM (SCC-9; [1]) was 2.3%. It also gave a cytotoxicity at 2 µM (SNU-5) of 31.5%, a cytotoxicity at 4.5 µM (LS411N) of 0.4% and a cytotoxicity at 4.5 µM (SNU-C2B) of 44.8%. The cytotoxicity at 2 µM (NCI-N87) was 7.01%, the cytotoxicity at 2 µM (HCC2935) was 4.95% and the cytotoxicity at 4.5 µM (SW620) was 5.5%. For the same molecule, the cytotoxicity at 2 µM (NCI-H460) was 3.43%, the cytotoxicity at 2 µM (AsPC-1) was 2.71% and the cytotoxicity at 2 µM (SW1990) was 2.23%. The cytotoxicity at 2 µM (NCI-H23) was 10.8%, the cytotoxicity at 2 µM (SNU-1) was 6.83% and the cytotoxicity at 2 µM (A549) was 9.61%.

Work on `CN[C@@H](C)C(=O)N[C@H](C(=O)N1CCC[C@H]1C(=O)N[C@H]1c2ccccc2C[C@H]1OCC#CC#CCO[C@@H]1Cc2ccccc2[C@@H]1NC(=O)[C@@H]1CCCN1C(=O)[C@@H](NC(=O)[C@H](C)NC)C1CCCCC1)C1CCCCC1` [AZD5582] yielded a cytotoxicity at 0.45 µM (HT-29; AZD5582 450 nM alone) of 23.4%, a cytotoxicity at 0.45 µM (LOVO; AZD5582 450 nM alone) of 28.2% and a cytotoxicity at 0.45 µM (LS411N; LS411N, AZD5582 450 nM alone) of 12.7%. For the same molecule, the cytotoxicity at 0.45 µM (SNU-C2B; AZD5582 450 nM alone) was 75.3% and the cytotoxicity at 0.45 µM (SW620; SW620, AZD5582 450 nM alone) was 4.1%.

`CN[C@@H](C)C(=O)N[C@H](C(=O)N1CCC[C@H]1c1nc(C(=O)c2ccc(F)cc2)cs1)C1CCCCC1` [LCL-161] gave a cytotoxicity at 5 µM (HT-29; [2]) of 6.2%, a cytotoxicity at 5 µM (LS411N; LS411N, LCL-161 5 uM alone, read-out: % cytotoxicity) of 10.5% and a cytotoxicity at 5 µM (SNU-C2B; [2]) of 72.9%. The cytotoxicity at 5 µM (SW620; SW620, LCL-161 5 uM alone, read-out: % cytotoxicity) was 4.7% and the cytotoxicity at 5 µM (LS174T) was 9%.

`C[C@@H]1CN(CC(=O)N2CC(C)(C)c3nc(CO)c(Cc4ccc(F)cc4)cc32)[C@@H](CN2CCOC[C@H]2C)CN1` [ASTX660, tolinapant] was tested, and the cytotoxicity at 0.9 µM (HT-29; ASTX660 900 nM alone) was 0.3%, the cytotoxicity at 0.9 µM (LOVO; ASTX660 900 nM alone) was 6.5% and the cytotoxicity at 0.9 µM (LS411N; LS411N, ASTX660 900 nM alone) was 5.9%. For the same molecule, the cytotoxicity at 0.9 µM (SNU-C2B; ASTX660 900 nM alone) was 31.1% and the cytotoxicity at 0.9 µM (SW620; SW620, ASTX660 900 nM alone) was 2.6%.

B1: INBRX-109: DR5-binding polypeptide consisting of SEQ ID NO: 7, or SEQ ID NO: 7 lacking the terminal lysine; tetravalent DR5 agonist (protein)
chain: EVQLLESGGGEVQPGGSLRLSCAASGLTFPNYGMGWFRQAPGKEREFVSAIYWSGGTVYYAESVKGRFTISRDNAKNTLYLQMSSLRAEDTAVYYCAVTIRGAATQTWKYDYWGQGTLVTVKPGGSGGSEVQLLESGGGEVQPGGSLRLSCAASGLTFPNYGMGWFRQAPGKEREFVSAIYWSGGTVYYAESVKGRFTISRDNAKNTLYLQMSSLRAEDTAVYYCAVTIRGAATQTWKYDYWGQGTLVTVKPGGGGDKTHTCPPCPAPGGPSVFLFPPKPKDTLMISRTPEVTCVVVDVSHEDPEVKFNWYVDGVEVHNAKTKPREEQYNSTYRVVSVLTVLHQDWLNGKEYKCKVSNKALPAPIEKTISKAKGQPREPQVYTLPPSRDELTKNQVSLTCLVKGFYPSDIAVEWESNGQPENNYKTTPPVLDSDGSFFLYSKLTVDKSRWQQGNVFSCSVMHEALHNHYTQKSLSLSPGK
modifications: Synthetic: INBRX-109
notes: tetravalent DR5 agonist
B1 was tested, and the “% cytotoxicity” value (OSC-19; INBRX-109 1 nM alone) was 100.9%, the “% cytotoxicity” value (Detroit 562; INBRX-109 1 nM alone) was 42.9% and the “% cytotoxicity” value (CAL-27; INBRX-109 1 nM alone) was 13.7%. For the same molecule, the “% cytotoxicity” value (A253; INBRX-109 1 nM alone) was 50.9%, the “% cytotoxicity” value (SCC-4; INBRX-109 1 nM alone) was 8.5% and the “% cytotoxicity” value (KYSE-270; INBRX-109 1 nM alone) was 7.3%. For the same molecule, the “% cytotoxicity” value (SCC-15; INBRX-109 1 nM alone) was 7.3%, the “% cytotoxicity” value (FADU; INBRX-109 1 nM alone) was 6.1% and the “% cytotoxicity” value (KYSE-410; INBRX-109 1 nM alone) was 2.6%. The “% cytotoxicity” value (RPMI-2650; INBRX-109 1 nM alone) was 2.9%, the “% cytotoxicity” value (SW579; INBRX-109 1 nM alone) was 101.7% and the “% cytotoxicity” value (T.Tn; INBRX-109 1 nM alone) was 42.9%. The “% cytotoxicity” value (SCC-25; INBRX-109 1 nM alone) was 7.9%, the “% cytotoxicity” value (COLO-680N; INBRX-109 1 nM alone) was 9.6% and the “% cytotoxicity” value (KYSE-70; INBRX-109 1 nM alone) was 22.3%. For the same molecule, the “% cytotoxicity” value (KYSE-150; INBRX-109 1 nM alone) was −0.3%, the “% cytotoxicity” value (TE-1; INBRX-109 1 nM alone) was 38.4% and the “% cytotoxicity” value (SCC-9; INBRX-109 1 nM alone) was 19.4%.

From patent US20250302948A1, “DR5 Agonist and IAP Antagonist Combination Therapy” (Inhibrx Biosciences, Inc., priority 2022, published 2025)
